Test results published in patent US11951167B2, “Targeted liposomes” (GEORGETOWN UNIVERSITY, priority 2012, dated 2024).
Like-named read-outs stand apart in the source and are kept apart here.

Experiments:
[1] = test system: intracranial U87MG-luc2 glioblastoma tumor xenografts; experiment: Efficacy in intracranial GBM xenografts (MRI, BLI, body weight, survival)
Protocol: Intra cranial GBM tumors were induced in 5-6 week old female athymic nude mice by stereotaxic inoculation of U87MG-luc2 cells that stably carry the luciferase gene. Seven to ten days post-inoculation, tumors were evaluated by bioluminescence using Xenogen IVIS in vivo imaging system (Caliper Life Sciences) and mice were evenly divided into treatment groups. Treatment was initiated on the day of randomization (day 0). Animals were injected intravenously (i.v.) via the tail vein with 5 mg/kg (per injection per mouse) of TMZ alone or TfRscFv-targeted TMZ cationic liposome complex (scL-TMZ). […] Mice were injected twice per week with each reagent for 5 weeks. Control animals (Vehicle) received Liposome only (no TMZ, no TfRscFv).
Assessment of in vivo efficacy: The in vivo response to treatment was evaluated based upon the changes in tumor growth, body weight change, and overall survival. Tumor growth was monitored by bioluminescence imaging (BLI) using Xenogen IVIS in vivo imaging system before, during, and after the treatments at the indicated date. […] The bioluminescence intensity of the brain tumors, a measure of tumor size/growth, was measured and compared between treatment groups. Half-way through treatment (after mice received 3 weeks of treatment with each reagent), all animals were scanned with magnetic resonance imaging (MRI) to evaluate the brain tumor. […] Tumor volume was calculated from the MRI scan and compared between treatment groups. Body weight change was monitored weekly. Overall survival was recorded and plotted by Kaplan-Meier method.
In a second experiment, different doses/number of injections per week of scL-TMZ, prepared as described herein, were compared. Groups of mice bearing U87MG-luc2 glioblastoma intracranial xenograft tumors were iv tail vein injected for 5 weeks with scL-TMZ at: 2.5 mg/kg one injection per week; 5 mg/kg one injection per week; or 5 mg/kg two injections per week and survival determined.

U251 cells = experiment: XTT sensitization to TMZ by scL-p53; type: cell-based, human; conditions: XTT 144 h after TMZ addition
Protocol: (§1) To assess the ability of scL delivered wtp53 to sensitize brain tumor cells to first-line chemotherapeutic agent TMZ, human brain tumor derived U87 and U251 cells were treated with TMZ alone, or the combination of TMZ plus scL-p53 (prepared as described in U.S. Pat. No. 7,780,882). As a control, cells were also treated with the combination of TMZ and the scL delivery system carrying the same vector used to construct the pSCMVp53 plasmid, but without the p53 insert (scL-vec). The cells were plated in a 96-well plate and treated 24 hours later with scL-p53 or scL-vec. 6 hours post-transfection, the TMZ was added in increasing concentrations. […] As these two cell lines are known to be sensitive to TMZ, it was not unexpected that there was some response to TMZ alone.

U87 cells = experiment: XTT sensitization to TMZ by scL-p53; type: cell-based, human; conditions: XTT 144 h after TMZ addition
Protocol: as §1

LN-18 cells = experiment: XTT sensitization of TMZ resistant cells by scL-p53; type: cell-based, human; conditions: XTT 72 h after TMZ addition
Protocol: (§2) However, as only a subset of brain tumor patients respond to TMZ it was more critical to assess the ability of scL-p53 to sensitize TMZ resistant tumors to this chemotherapeutic agent. Thus, to assess the ability of scL delivered wtp53 to sensitize TMZ resistant brain tumor cells to this first-line chemotherapeutic agent, human brain tumor derived LN-18 and T98G cells were treated with TMZ alone, or the combination of TMZ plus scL-p53 (FIG. 23). As a control, cells were also treated with the combination of TMZ and the scL delivery system carrying the same vector used to construct the pSCMVp53 plasmid, but without the p53 insert (scL-vec). The cells were plated in a 96-well plate and treated 24 hours later with scL-p53 or scL-vec. 24 hours post-transfection, the TMZ was added in increasing concentrations. […] As shown in FIG. 23 with LN-18 cells, after transfection with scL-p53 these TMZ resistant cells are now responding to even very low doses of TMZ. […] With the T98G cells (FIG. 23), although not as responsive as to TMZ as LN-18 after treatment with scL-p53, these highly resistant cells are also sensitized to the killing effects of this drug.

T98G cells [2] = experiment: as above; type: cell-based, human; conditions: XTT 72 h after TMZ addition
Protocol: as §2

[3] = test system: U87MG-Luc xenograft brain tumors; experiment: Survival of mice with intracranial GBM tumors (Kaplan-Meier); type: in vivo, nude mice
Protocol: U87MG-Luc xenograft brain tumors were induced in nude mice as described above. 10 days post-inoculation, tumor-bearing animals were i.v. tail vein injected with TMZ alone (25.0 mg/kg/injection), scL-p53 alone (30 ug DNA/mouse/injection) (prepared as described in U.S. Pat. No. 7,780,882) or TMZ in combination with scL-p53. As a control, one group received PBS (vehicle). All i.v. injections were administered 2×/week to a total of 10 injections. The animals were monitored 2-3 times/week and euthanized when moribund. The gray bar in FIG. 27 indicates the duration of treatment.

intracranial T98G tumors = experiment: Survival of mice with TMZ resistant intracranial GBM tumors; type: in vivo, athymic nude mice; conditions: TMZ 100 mg/m^2 i.v. daily for 14 days; scL-p53 30 ug DNA twice weekly for 2 weeks
Protocol: Thus an experiment was performed to assess survival of mice bearing intracranial tumors derived from TMZ resistant human GBM cell line T98G. Athymic nude mice were intracranially inoculated with T98G human glioblastoma cell line. Ten days after the inoculation, animals were imaged by MRI and evenly divided into 3 groups. Treatment was started immediately after imaging. The animals were iv treated with 100 mg/m^2 of TMZ once a day for 14 consecutive days, iv administered scL-p53 (30 ug DNA/injection) (prepared as described in U.S. Pat. No. 7,780,882) twice weekly for 2 weeks, or the combination of both treatments. Survival was monitored. The number of mice surviving/group at day 14 is indicated for each group. […] In contrast, 4 of 5 mice that had received the combination therapy were still surviving.

T98G cells [4] = conditions: TMZ resistant T98G, XTT
Source text: The in vitro cell killing ability of the scL-TMZ was compared to free, unencapsulated TMZ in TMZ resistant human brain tumor cell line T98G using the XTT assay.

[5] = test system: glioblastoma multiforme / anaplastic astrocytoma; conditions: cited from earlier work
[6] = 5 mg/kg i.v. twice per week for 5 weeks

## Cn1nnc2c(C(N)=O)ncn2c1=O [TMZ, temozolomide]
[1]; [6]
  long term survival (Kaplan-Meier): extended the lifespan
  time tumor growth was controlled (BLI): ~2.5 weeks
[1]; 5 mg/kg i.v. twice per week, after 3 weeks (6 injections)
  tumor growth by MRI: some tumor growth inhibition
U251 cells
  sensitization/response to TMZ: some response
U87 cells
  sensitization/response to TMZ: some response
LN-18 cells
  dose of TMZ until which no significant cell death is observed: ~1000 µM
T98G cells [2]
  IC50: ~2000 µM
[3]; TMZ 25.0 mg/kg
  day by which all of the mice succumbed to their tumor: ~155 days
[3]; TMZ 25.0 mg/kg, scL-p53 30 ug DNA/mouse, i.v. 2x/week, 10 injections
  Median Survival: 112 days
[3]; ratio of the median survival of untreated GBM xenografts
  Survival Prolongation (%): 348%
Intracranial T98G tumors
  mice surviving at day 14: a significant number of animals succumbed
T98G cells [4]
  IC50: > 1000 µM
[5]; human, in vivo
  AA patients who do not benefit from TMZ: 50%
  GBM patients who do not benefit from TMZ: 60-75%
[5]; subset of GBM patients
  median increase in survival compared to radiation alone: 2.5 months
